Experimental data: the NIST ThermoML archive (doi:10.1021/je060271a)
± gives the expanded uncertainty stated by the source.

Settings: 343.15 K, Liquid, Vibrating tube method

CCCCCCCC(=O)OCC(COC(=O)CCCCCCC)(COC(=O)CCCCCCC)COC(=O)CCCCCCC [pentaerythritol tetraoctanoate]
Settings | mass density [kg/m3]
22002 kPa | 941.5 ± 1.2
22028 kPa | 941.4 ± 1.2
22054 kPa | 941.3 ± 1.2
22085 kPa | 941.4 ± 1.2
22111 kPa | 941.4 ± 1.2
22142 kPa | 941.5 ± 1.2
22168 kPa | 941.4 ± 1.2
22195 kPa | 941.6 ± 1.2
22221 kPa | 941.4 ± 1.2
22248 kPa | 941.5 ± 1.2
22280 kPa | 941.6 ± 1.2
22307 kPa | 941.6 ± 1.2
22338 kPa | 941.5 ± 1.2
22365 kPa | 941.8 ± 1.2
22392 kPa | 941.7 ± 1.2
22424 kPa | 941.7 ± 1.2
22451 kPa | 941.7 ± 1.2
22478 kPa | 941.5 ± 1.2
22510 kPa | 941.7 ± 1.2
22537 kPa | 941.7 ± 1.2
22564 kPa | 941.8 ± 1.2
22599 kPa | 941.9 ± 1.2
22626 kPa | 941.8 ± 1.2
22654 kPa | 941.9 ± 1.2
22682 kPa | 941.9 ± 1.2
22709 kPa | 941.7 ± 1.2
22742 kPa | 941.8 ± 1.2
22770 kPa | 941.8 ± 1.2
22798 kPa | 941.8 ± 1.2
22831 kPa | 942 ± 1.2
22858 kPa | 941.8 ± 1.2
22892 kPa | 941.9 ± 1.2
22920 kPa | 941.9 ± 1.2
22949 kPa | 942 ± 1.2
23008 kPa | 942 ± 1.2
23042 kPa | 941.9 ± 1.2
23070 kPa | 942.1 ± 1.2
23098 kPa | 942.1 ± 1.2
23132 kPa | 942.1 ± 1.2
23161 kPa | 942.1 ± 1.2
23190 kPa | 942.1 ± 1.2
23224 kPa | 942.1 ± 1.2
23253 kPa | 942.1 ± 1.2
23281 kPa | 942.2 ± 1.2
23316 kPa | 942.2 ± 1.2
23344 kPa | 942.1 ± 1.2
23374 kPa | 942.3 ± 1.2
23409 kPa | 942.2 ± 1.2
23438 kPa | 942.4 ± 1.2
23468 kPa | 942.1 ± 1.2
23497 kPa | 942.3 ± 1.2
23532 kPa | 942.2 ± 1.2
23562 kPa | 942.4 ± 1.2
23597 kPa | 942.4 ± 1.2
23627 kPa | 942.3 ± 1.2
23656 kPa | 942.5 ± 1.2
23686 kPa | 942.4 ± 1.2
23722 kPa | 942.5 ± 1.2
23753 kPa | 942.5 ± 1.2
23777 kPa | 942.5 ± 1.2
23819 kPa | 942.5 ± 1.2
23849 kPa | 942.6 ± 1.2
23886 kPa | 942.6 ± 1.2
23916 kPa | 942.5 ± 1.2
23946 kPa | 942.5 ± 1.2
23984 kPa | 942.5 ± 1.2
24014 kPa | 942.6 ± 1.2
24045 kPa | 942.8 ± 1.2
24076 kPa | 942.6 ± 1.2
24113 kPa | 942.7 ± 1.2
24144 kPa | 942.6 ± 1.2
24182 kPa | 942.7 ± 1.2
24245 kPa | 942.8 ± 1.2
24283 kPa | 942.8 ± 1.2
24314 kPa | 942.8 ± 1.2
24345 kPa | 942.8 ± 1.2
24377 kPa | 942.9 ± 1.2
24415 kPa | 942.8 ± 1.2
24447 kPa | 942.9 ± 1.2
24480 kPa | 942.9 ± 1.2
24518 kPa | 943 ± 1.2
24550 kPa | 942.9 ± 1.2
24589 kPa | 943 ± 1.2
24622 kPa | 943.1 ± 1.2
24655 kPa | 943.1 ± 1.2
24688 kPa | 943.1 ± 1.2
24721 kPa | 943 ± 1.2
24761 kPa | 943.1 ± 1.2
24794 kPa | 943.1 ± 1.2
24828 kPa | 943.1 ± 1.2
24867 kPa | 943.1 ± 1.2
24894 kPa | 943.3 ± 1.2
24934 kPa | 943.3 ± 1.2
24961 kPa | 943.1 ± 1.2
24994 kPa | 943.2 ± 1.2
25028 kPa | 943.2 ± 1.2
25069 kPa | 943.3 ± 1.2
25097 kPa | 943.2 ± 1.2
25138 kPa | 943.4 ± 1.2
25185 kPa | 943.5 ± 1.2
25226 kPa | 943.3 ± 1.2
25260 kPa | 943.3 ± 1.2
25294 kPa | 943.5 ± 1.2
25335 kPa | 943.5 ± 1.2
25370 kPa | 943.5 ± 1.2
25404 kPa | 943.5 ± 1.2
25445 kPa | 943.6 ± 1.2
25480 kPa | 943.5 ± 1.2
25523 kPa | 943.6 ± 1.2
25553 kPa | 943.7 ± 1.2
25596 kPa | 943.5 ± 1.2
25632 kPa | 943.8 ± 1.2
25667 kPa | 943.6 ± 1.2
25703 kPa | 943.7 ± 1.2
25746 kPa | 943.8 ± 1.2
25781 kPa | 943.7 ± 1.2
25824 kPa | 943.7 ± 1.2
25860 kPa | 943.7 ± 1.2
25896 kPa | 943.8 ± 1.2
25933 kPa | 944 ± 1.2
25977 kPa | 943.9 ± 1.2
26014 kPa | 943.9 ± 1.2
26054 kPa | 943.9 ± 1.2
26091 kPa | 943.9 ± 1.2
26135 kPa | 943.9 ± 1.2
26172 kPa | 944 ± 1.2
26210 kPa | 944.2 ± 1.2
26247 kPa | 944.1 ± 1.2
26292 kPa | 944.1 ± 1.2
26329 kPa | 944.1 ± 1.2
26367 kPa | 944.2 ± 1.2
26412 kPa | 944.1 ± 1.2
26449 kPa | 944.1 ± 1.2
26495 kPa | 944.1 ± 1.2
26534 kPa | 944.1 ± 1.2
26573 kPa | 944 ± 1.2
26612 kPa | 944.2 ± 1.2
26696 kPa | 944.4 ± 1.2
26735 kPa | 944.4 ± 1.2
26781 kPa | 944.3 ± 1.2
26820 kPa | 944.4 ± 1.2
26859 kPa | 944.4 ± 1.2
26906 kPa | 944.4 ± 1.2
26945 kPa | 944.4 ± 1.2
26985 kPa | 944.4 ± 1.2
27032 kPa | 944.6 ± 1.2
27072 kPa | 944.4 ± 1.2
27113 kPa | 944.7 ± 1.2
